Reference: PMC4767605 (Cancer chemotherapy and pharmacology, 2016)
Values joined by “and” are separate entries in the source; they are usually repeats but may differ in a detail not shown here. Equal entries are not always repeated. Where two headings read alike, the source gives them in different places.

[1] = ASP9853 Lead-in (n=20), single agent
[2] = Cohort 1 (n=6): ASP9853 25 mg + docetaxel 60 mg/m^2
[3] = Cohort 2 (n=4): ASP9853 25 mg + docetaxel 75 mg/m^2
[4] = Cohort 3 (n=3): ASP9853 37.5 mg + docetaxel 60 mg/m^2

O.O.O=C(/C=C/c1ccc(Cl)cc1)N[C@@H](Cc1ccccn1)C(=O)NCC(=O)N1CCC(Oc2cc(C(F)(F)F)ncn2)CC1 [ASP9853, (2E)-3-(4-chlorophenyl)-N-[(1S)-2-oxo-2-{[2-oxo-2-(4-{[6-(trifluoromethyl)-4-pyrimidinyl]oxy}-1-piperidinyl)ethyl]amino}-1-(2-pyridinylmethyl)ethyl]acrylamide dehydrate]
Toxicity noted in single-patient Cohort 1 (did not meet DLT criteria) (ASP9853 25 mg + docetaxel 60 mg/m^2): Grade 3 neutropenia | Changes in liver function tests, vital signs, or electrocardiogram (ECGs) (ASP9853 + docetaxel): No clinically significant changes from baseline | Neutropenia during treatment (laboratory evaluation) (ASP9853 + docetaxel): All patients experienced neutropenia | Patients with AEs that led to treatment discontinuation (ASP9853 + docetaxel, all cohorts): Three | AE potentially related to ASP9853: Anemia; Grade 3/4 [1]: 0 n (%) | AE potentially related to ASP9853: Anemia; Grade All [1]: 0 n (%) | AE potentially related to ASP9853: Asthenia; Grade 3/4 [1]: 0 n (%) | AE potentially related to ASP9853: Asthenia; Grade All [1]: 1 (5) n (%) | AE potentially related to ASP9853: Constipation; Grade 3/4 [1]: 0 n (%) | AE potentially related to ASP9853: Constipation; Grade All [1]: 0 n (%) | AE potentially related to ASP9853: Decreased appetite; Grade 3/4 [1]: 0 n (%) | AE potentially related to ASP9853: Decreased appetite; Grade All [1]: 0 n (%) | AE potentially related to ASP9853: Diarrhea; Grade 3/4 (only Grade 3) [1]: 0 n (%) | AE potentially related to ASP9853: Diarrhea; Grade All [1]: 0 n (%) | AE potentially related to ASP9853: Dizziness; Grade 3/4 [1]: 0 n (%) | AE potentially related to ASP9853: Dizziness; Grade All [1]: 0 n (%) | AE potentially related to ASP9853: Fatigue; Grade 3/4 (only Grade 3) [1]: 0 n (%) | AE potentially related to ASP9853: Fatigue; Grade All [1]: 0 n (%) | AE potentially related to ASP9853: Febrile neutropenia; Grade 3/4 [1]: 0 n (%) | AE potentially related to ASP9853: Febrile neutropenia; Grade All [1]: 0 n (%) | AE potentially related to ASP9853: Nausea; Grade 3/4 [1]: 0 n (%) | AE potentially related to ASP9853: Nausea; Grade All [1]: 1(5) n (%) | AE potentially related to ASP9853: Neutropenia; Grade 3/4 [1]: 0 n (%) | AE potentially related to ASP9853: Neutropenia; Grade All [1]: 0 n (%) | AE potentially related to ASP9853: Neutrophil count decreased; Grade 3/4 [1]: 0 n (%) | AE potentially related to ASP9853: Neutrophil count decreased; Grade All [1]: 0 n (%) | AE potentially related to ASP9853: Overall; Grade 3/4 [1]: 0 n (%) | AE potentially related to ASP9853: Overall; Grade All [1]: 7 [35%] n (%) and 7 (35) n (%) | AE potentially related to ASP9853: Vomiting; Grade 3/4 [1]: 0 n (%) | AE potentially related to ASP9853: Vomiting; Grade All [1]: 1 (5) n (%) | AE potentially related to ASP9853: White blood cell count decreased; Grade All [1]: 0 n (%) | AE potentially related to ASP9853: Anemia; Grade 3/4 [2]: 0 n (%) | AE potentially related to ASP9853: Anemia; Grade All [2]: 1 (17) n (%) | AE potentially related to ASP9853: Asthenia; Grade 3/4 [2]: 0 n (%) | AE potentially related to ASP9853: Asthenia; Grade All [2]: 0 n (%) | AE potentially related to ASP9853: Constipation; Grade 3/4 [2]: 0 n (%) | AE potentially related to ASP9853: Constipation; Grade All [2]: 1 (17) n (%) | AE potentially related to ASP9853: Decreased appetite; Grade 3/4 [2]: 0 n (%) | AE potentially related to ASP9853: Decreased appetite; Grade All [2]: 0 n (%) | AE potentially related to ASP9853: Diarrhea; Grade 3/4 (only Grade 3) [2]: 0 n (%) | AE potentially related to ASP9853: Diarrhea; Grade All [2]: 1 (17) n (%) | AE potentially related to ASP9853: Dizziness; Grade 3/4 [2]: 0 n (%) | AE potentially related to ASP9853: Dizziness; Grade All [2]: 0 n (%) | AE potentially related to ASP9853: Fatigue; Grade 3/4 (only Grade 3) [2]: 0 n (%) | AE potentially related to ASP9853: Fatigue; Grade All [2]: 2 (33) n (%) | AE potentially related to ASP9853: Febrile neutropenia; Grade 3/4 [2]: 0 n (%) | AE potentially related to ASP9853: Febrile neutropenia; Grade All [2]: 0 n (%) | AE potentially related to ASP9853: Nausea; Grade 3/4 [2]: 0 n (%) | AE potentially related to ASP9853: Nausea; Grade All [2]: 0 n (%) | AE potentially related to ASP9853: Neutropenia; Grade 3/4 [2]: 1 (17) n (%) | AE potentially related to ASP9853: Neutropenia; Grade All [2]: 1 (17) n (%) | AE potentially related to ASP9853: Neutrophil count decreased; Grade 3/4 [2]: 0 n (%) | AE potentially related to ASP9853: Neutrophil count decreased; Grade All [2]: 0 n (%) | AE potentially related to ASP9853: Overall; Grade 3/4 [2]: 2 (33) n (%) | AE potentially related to ASP9853: Overall; Grade All [2]: 5 (83) n (%) | AE potentially related to ASP9853: Vomiting; Grade 3/4 [2]: 0 n (%) | AE potentially related to ASP9853: Vomiting; Grade All [2]: 0 n (%) | AE potentially related to ASP9853: White blood cell count decreased; Grade All [2]: 1 (17) n (%) | SAE considered related to ASP9853: diarrhea (Cohort 2): 1 n | SAE considered related to ASP9853: febrile neutropenia (Cohort 2): 2 n | AE potentially related to ASP9853: Anemia; Grade 3/4 [3]: 0 n (%) | AE potentially related to ASP9853: Anemia; Grade All [3]: 1 (25) n (%) | AE potentially related to ASP9853: Asthenia; Grade 3/4 [3]: 0 n (%) | AE potentially related to ASP9853: Asthenia; Grade All [3]: 2 (50) n (%) | AE potentially related to ASP9853: Constipation; Grade 3/4 [3]: 0 n (%) | AE potentially related to ASP9853: Constipation; Grade All [3]: 0 n (%) | AE potentially related to ASP9853: Decreased appetite; Grade 3/4 [3]: 0 n (%) | AE potentially related to ASP9853: Decreased appetite; Grade All [3]: 1 (25) n (%) | AE potentially related to ASP9853: Diarrhea; Grade 3/4 (only Grade 3) [3]: 1 (25) n (%) | AE potentially related to ASP9853: Diarrhea; Grade All [3]: 2 (50) n (%) | AE potentially related to ASP9853: Dizziness; Grade 3/4 [3]: 0 n (%) | AE potentially related to ASP9853: Dizziness; Grade All [3]: 0 n (%) | AE potentially related to ASP9853: Fatigue; Grade 3/4 (only Grade 3) [3]: 1 (25) n (%) | AE potentially related to ASP9853: Fatigue; Grade All [3]: 3 (75) n (%) | AE potentially related to ASP9853: Febrile neutropenia; Grade 3/4 [3]: 2 (50) n (%) | AE potentially related to ASP9853: Febrile neutropenia; Grade All [3]: 2 (50) n (%) | AE potentially related to ASP9853: Nausea; Grade 3/4 [3]: 0 n (%) | AE potentially related to ASP9853: Nausea; Grade All [3]: 2 (50) n (%) | AE potentially related to ASP9853: Neutropenia; Grade 3/4 [3]: 0 n (%) | AE potentially related to ASP9853: Neutropenia; Grade All [3]: 0 n (%) | AE potentially related to ASP9853: Neutrophil count decreased; Grade 3/4 [3]: 0 n (%) | AE potentially related to ASP9853: Neutrophil count decreased; Grade All [3]: 0 n (%) | AE potentially related to ASP9853: Overall; Grade 3/4 [3]: 3 (75) n (%) | AE potentially related to ASP9853: Overall; Grade All [3]: 3 (75) n (%) | AE potentially related to ASP9853: Vomiting; Grade 3/4 [3]: 0 n (%) | AE potentially related to ASP9853: Vomiting; Grade All [3]: 3 (75) n (%) | AE potentially related to ASP9853: White blood cell count decreased; Grade All [3]: 0 n (%) | AE potentially related to ASP9853: Anemia; Grade 3/4 [4]: 0 n (%) | AE potentially related to ASP9853: Anemia; Grade All [4]: 0 n (%) | AE potentially related to ASP9853: Asthenia; Grade 3/4 [4]: 0 n (%) | AE potentially related to ASP9853: Asthenia; Grade All [4]: 0 n (%) | AE potentially related to ASP9853: Constipation; Grade 3/4 [4]: 0 n (%) | AE potentially related to ASP9853: Constipation; Grade All [4]: 1 (33) n (%) | AE potentially related to ASP9853: Decreased appetite; Grade 3/4 [4]: 0 n (%)
